According to publication PMC10138723, “Cytotoxic Steroidal Saponins Containing a Rare Fructosyl from the Rhizomes of Paris polyphylla var. latifolia” (International Journal of Molecular Sciences, 2023):

How the values were obtained:
[1] = tested on: HeLa (human cervical cancer cells); test: CCK-8 cytotoxic assay, HeLa; format: cell-based; settings: HeLa cells, CCK-8, 24 h, read-out: IC50 ± SD, HeLa
Excerpt: (§1) U251 (human glioma cells), HeLa (human cervical cancer cells), and HepG2 (human hepatic cancer cells) were purchased from the Chinese Academy of Sciences (China), and Capan-2 (human pancreatic cancer cells) were obtained from Nanjing Cobioer Biosicences (Nanjing, China). American Type Culture Collection (ATCC) provided LN229 (human glioma cells). NHA (Gibco Human Astrocytes) and Gibco Astrocyte Medium (DMEM, N-2 Supplement, One Shot fetal bovine serum) were purchased from ThermoFisher Scientific (Waltham, MA, USA). The LN229, U251, HepG2 and HeLa cells were cultured in DMEM (Procell, Wuhan, China). The Capan-2 cells were cultured in RPMI-1640 (Procell, Wuhan, China) and NHA cells were cultured in Gibco Astrocyte Medium, supplemented with 10% FBS (Solarbio, Beijing, China) and 1% Penicillin–Streptomycin (Elabscience Biotechnology Co.,Ltd, Wuhan, China) at 37 °C with 5% CO2.
(§2) In the exponential phase of the growth, five tumor cell lines and one normal human astrocytes were plated onto 96-well plates at a concentration of 8000 cells/well for 24 h. Compounds 1–12 were prepared to various concentrations (64, 32, 16, 8, 4, 2, 1 and 0.5 µM in medium containing less than 0.1% DMSO) and incubated in 96-well plates (each concentration in four-fold wells) for 24 h. Cell viability was determined according to reported assay methods using the commercial CCK-8 kit (Elabscience Biotechnology Co., Ltd., Wuhan, China). The optical density (OD) of each well was measured with an AMR-100 microplate reader at 450 nm (Allsheng Corporation, Hangzhou, China). Cytotoxicity emerged as the value of the drug concentration at the inhibition of cell growth by 50% (IC50). The experiments were conducted for three independent replicates, and Doxorubicin was used as the positive control.

[2] = tested on: HepG2 (human hepatic cancer cells); test: CCK-8 cytotoxic assay, HepG2; format: cell-based; settings: HepG2 cells, CCK-8, 24 h, read-out: IC50 ± SD, HepG2
Excerpt: as §1, §2

[3] = tested on: U251 (human glioma cells); test: CCK-8 cytotoxic assay, U251; format: cell-based; settings: U-251, U251 cells, CCK-8, 24 h, read-out: IC50 ± SD, U251
Excerpt: as §1, §2

glioma cells LN229 = test: Flow cytometry analysis for apoptosis (Annexin V-FITC/PI); format: cell-based, human; settings: different concentrations, 24 h
Method: Flow cytometry was used to analyze the effect of 1 on the apoptosis of glioma cells LN229. Cells were treated with different concentrations of 1 for 24 h. Then, the cells were collected and washed twice with cold PBS for five minutes (1000 rpm). The cells were analyzed for apoptosis by flow cytometry (BD, Franklin Lakes, NJ, USA) using the Annexin V-FITC/PI assay kit.

[4] = tested on: Capan-2 (human pancreatic cancer cells); test: CCK-8 cytotoxic assay, Capan-2; format: cell-based; settings: Capan-2 cells, CCK-8, 24 h, read-out: IC50 ± SD, Capan-2
Excerpt: as §1, §2

[5] = tested on: NHA (normal human astrocytes); test: CCK-8 cytotoxic assay, NHA normal astrocytes; format: cell-based; settings: Astrocyte; NHA normal human astrocytes, CCK-8, 24 h; read-out: IC50 ± SD, NHA
Excerpt: as §1, §2

[6] = tested on: LN229 (human glioma cells); test: CCK-8 cytotoxic assay, LN229; format: cell-based; settings: LN-229, LN229 cells, CCK-8, 24 h, read-out: IC50 ± SD, LN229
Excerpt: as §1, §2

[7] = tested on: EGFR/PI3K/Akt/mTOR signaling pathway in LN229 cells; test: Western blot of EGFR/PI3K/Akt/mTOR signaling in LN229; format: cell-based, human; settings: LN229, 24 h
Excerpt: (§3) Primary antibodies against Bax (50599-2-Ig), Bcl-2 (26593-1-AP), Akt (10176-2-AP), p-Akt (28731-1-AP), PI3K (20584-1-AP), p-PI3K (60225-1-Ig), mTOR (28273-1-AP), p-mTOR (67778-1-Ig), Cytochrome C (10993-1-AP), β-actin (20536-1-AP), HRP-Goat-Anti-Mouse IgG (H+L) (SA00001-1), and HRP-Goat-Anti-Rabbit IgG (H+L) (SA00001-2) were obtained from Proteintech Group, Inc. (Rosemont, USA). Primary antibodies against EGFR (WL0682a), p-EGFR (WL03432) and cleaved caspase 3 (WL01992) were obtained from Wanleibio (Shenyang, China). The LN229 cells were treated with various concentrations of 1 or 0.1% DMSO for 24 h. A BCA Protein Assay Kit was used to measure the protein concentration, then equal amounts of protein samples were separated by 10% sodium dodecyl sulfate–polyacrylamide gel electrophoresis and transferred to a polyvinylidene fluoride membrane (Millipore, Burlington, MA, USA). The membranes were blocked for 2 h in Tris-buffered saline with PBST buffer, containing 5% skim milk. Then, the membranes were incubated with the appropriate primary antibodies overnight at 4 ℃. Then, the membranes were washed with PBST and reacted with a secondary horseradish peroxidase-conjugated antibody. Image Lab 5.2.1 (Biorad Laboratories, Hercules, CA, USA) was used to analyze the blots after detection using enhanced chemiluminescence (Millipore). Data analyses were performed using the GraphPad Prism software (San Diego, CA, USA).

[8] = tested on: five cancer cell lines (LN229, U251, Capan-2, HeLa, HepG2); test: CCK-8 cytotoxic assay, summary over five cancer cell lines; format: cell-based; settings: Homo sapiens, range over compounds 1 and 2 and five cancer cell lines, read-out: IC50 values (range) against five cancer cell lines
Excerpt: as §1
In the exponential phase of the growth, five tumor cell lines and one normal human astrocytes were plated onto 96-well plates at a concentration of 8000 cells/well for 24 h. […] Cell viability was determined according to reported assay methods using the commercial CCK-8 kit (Elabscience Biotechnology Co., Ltd., Wuhan, China). The optical density (OD) of each well was measured with an AMR-100 microplate reader at 450 nm (Allsheng Corporation, Hangzhou, China). […]

[9] = tested on: Bax/Bcl-2, cleaved caspase 3, cytochrome c in LN229 cells; test: Western blot of apoptosis-related proteins in LN229; format: cell-based, human; settings: LN229, 24 h, compared with the control group
Excerpt: as §3

CC1CCC2(OC1)OC1CC3C4CC=C5CC(OC6OC(COC7(CO)OC(CO)C(O)C7O)C(O)C(O)C6OC6OC(C)C(O)C(O)C6O)CCC5(C)C4CCC3(C)C1C2C [Compound 1, diosgenin-3-O-β-D-fructofuranosyl-(1→6)-[α-L-rhamnopyranosyl-(1 → 2)]-β-D-glucopyranoside]
IC50 [1]: 3.3 ± 0.38 µM | IC50 [2]: 4.32 ± 0.51 µM | IC50 [3]: 3.85 ± 0.44 µM | ratio of apoptotic LN229 (Annexin V+/PI−) (glioma cells LN229): increased | ratio of living cells (Annexin V−/PI−) (glioma cells LN229): decreased | IC50 [4]: 3.26 ± 0.34 µM | IC50 [5]: > 50 µM | IC50 [6]: 4.18 ± 0.31 µM | expression level of p-Akt [7]: decreased | expression level of p-PI3K [7]: decreased | expression level of p-mTOR [7]: decreased | expression of total EGFR [7]: no evident effect | phosphorylation levels of EGFR [7]: significantly suppressed | IC50 [8]: 3.26 to 22.3 µM | expression of Bax/Bcl-2 [9]: significantly increased | expression of cleaved caspase 3 [9]: significantly increased | expression of cytochrome c [9]: significantly increased
